Read-outs that look alike come from different tables or passages of the source.
Columns and labels:
[1] = test system: Mycosphaerella graminicola; Anamorph: Septoria tritici; test: Fungicidal activity: Leaf Blotch of Wheat (SEPTTR), wheat plants variety Yuma; type: in vivo; design: key to SEPTTR 3DC Disease Control: A: 50-100; B: More than 0-Less than 50; C: Not Tested; D: No activity noticed in this bioassay; settings: for pest or weed control at 100 ppm: Zymoseptoria tritici
Summary of the method: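 Greenhouse wheat seedlings at first-leaf stage, 7-10 per pot, inoculated with aqueous Septoria tritici spore suspension before or after fungicide treatment. Kept at 100% relative humidity (1 day dark dew chamber, then 2-3 days lighted), then greenhouse at 20° C. for disease development.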

[2] = test system: Puccinia triticina. Synonym: Puccinia recondite f. sp. tritici; test: Fungicidal activity: Wheat Brown Rust (PUCCRT), wheat plants variety Yuma; type: in vivo; settings: Puccinia triticina
Summary of the method: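 Yuma wheat seedlings at first-leaf stage were inoculated with P. triticina spore suspension before or after fungicide treatment. Plants were held overnight at 100% relative humidity, then kept in a 24 C greenhouse for disease development.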

[3] = 24 h, 1 Day Protectant, read-out: SEPTTR 1DP Disease Control
[4] = 72 h, 3 Day Curative, read-out: SEPTTR 3DC Disease Control
[5] = 24 h, 1 Day Protectant, read-out: PUCCRT 1DP Disease Control
[6] = 72 h, 3 Day Curative, read-out: PUCCRT 3DC Disease Control

Compound	pest or weed control at 100 ppm [1, 3] [%]	pest or weed control at 100 ppm [1, 4] [%]	pest or weed control at 100 ppm [2, 5] [%]	pest or weed control at 100 ppm [2, 6] [%]	melting point [°C]	SEPTTR 3DC Disease Control ([1]; 100 ppm, 3 Day Curative)
COc1ccnc(C(=O)N[C@H]2COC(=O)[C@H](CC3CCCCC3)[C@@H](OC(=O)C(C)C)[C@H](C)OC2=O)c1OC(C)=O [Compound 66, (3S,6S,7R,8R)-3-(3-acetoxy-4-methoxypicolinamido)-8-(cyclohexylmethyl)-6-methyl-4,9-dioxo-1,5-dioxonan-7-yl isobutyrate]	50 to 100	50 to 100	50 to 100	50 to 100	164 to 170	
COc1ccnc(C(=O)N[C@H]2COC(=O)[C@H](Cc3ccc(C(F)(F)F)cc3)[C@@H](OC(=O)C(C)C)[C@H](C)OC2=O)c1OC(C)=O [Compound 67]	0 to 50		50 to 100	50 to 100	127 to 134	D
COc1ccnc(C(=O)N[C@H]2COC(=O)[C@H](CCOC(=O)c3ccc(C(F)(F)F)cc3)[C@@H](OC(=O)C(C)C)[C@H](C)OC2=O)c1OC(C)=O [Compound 68]	0 to 50	0 to 50	0 to 50	0 to 50	199 to 200	
CC[C@H]1C(=O)OC[C@H](NC(=O)c2nccc(OC)c2OC(C)=O)C(=O)O[C@@H](C)[C@@H]1OC(=O)C(C)C [Compound 69]	50 to 100	50 to 100	50 to 100	50 to 100	158 to 161	
COc1ccnc(C(=O)N[C@H]2COC(=O)[C@H](Cc3cccnc3)[C@@H](OC(=O)C(C)C)[C@H](C)OC2=O)c1OC(C)=O [Compound 70]	0 to 50	0 to 50	50 to 100	50 to 100	151 to 160	

— patent publication US9131690B2, “Macrocyclic picolinamides as fungicides” (Dow AgroSciences LLC, priority 2012, dated 2015)
